Laboratory results published in patent publication US8394971B2, “Indole derivatives as selective androgen receptor modulators (SARMS)” (Janssen Pharmaceutica N.V., priority 2004, dated 2013).

test system: testosterone-enhanced ventral prostate and seminal vesicle weights in castrated male Sprague Dawley rats; experiment: Ventral Prostate and Seminal Vesicle Weight In Vivo Assay; set-up: species or system rat; details: immature castrated rats; once daily for five days, usually orally at 40 mg/kg, with testosterone propionate 2 mg/kg s.c.
Procedure: Immature (approximately 50 g) castrated male Sprague Dawley rats (Charles River) were treated once daily for five days with test compound (usually given orally at 40 mg/kg in a volume of 0.3 mL, in 30% cyclodextrin or 0.5% methylcellulose vehicle) and with testosterone propionate (given subcutaneously by injection at the nape of the neck at 2 mg/kg, in a volume of 0.1 mL in sesame oil). On the sixth day, the rats were euthanized by asphyxiation in carbon dioxide. Ventral prostates and seminal vesicles were removed and their wet weights determined.
A test compound was said to be “active” if the non weight adjusted prostate weight was ≦40 mg or the % Inhibition prostate weight, body weight adjusted was ≧40% @2 mg/day dosage.

Row | Structure (SMILES) | active / inactive (inhibition of testosterone-enhanced prostate weight)
1 | CCSCC(C)(O)c1cc2cc([N+](=O)[O-])c(C(F)(F)F)cc2o1 (racemic) [compound 9] | inactive
2 | CCSCC(C)(O)c1[nH]c2cc(C(F)(F)F)c(C#N)cc2c1C#C[Si](C)(C)C (racemic) [compound 325] | inactive
3 | CCSCC(C)(O)c1[nH]c2cc(C(F)(F)F)c(C#N)cc2c1I (single isomer, unassigned) [compound 349] | active
4 | CCSCC(C)(O)c1[nH]c2cc(C(F)(F)F)c([N+](=O)[O-])cc2c1I (single isomer, unassigned) [compound 241] | inactive
5 | COCn1c(C(C)(O)C(F)(F)F)cc2cc(C#N)c(C(F)(F)F)cc21 (racemic) [compound 332] | active
6 | CC(O)(C[S+]([O-])c1ccc(F)cc1)c1cc2cc(Cl)c(C(F)(F)F)cc2[nH]1 (stereo not shown) [compound 113] | inactive
7 | CCSCC(C)(O)c1cc2cc(C#N)c(OC)cc2[nH]1 (racemic) [compound 445] | inactive
8 | CCS(=O)(=O)CC(C)(O)c1cc2cc(Cl)c(C(F)(F)F)cc2[nH]1 (racemic) [compound 404] | active
9 | CCSCC(C)(O)c1cc2cc(C#N)c(C(F)(F)F)cc2n1CC (racemic) [compound 243] | active
10 | CCSCC(O)(c1cc2cc(C#N)c(C(F)(F)F)cc2[nH]1)C(F)(F)F (racemic) [compound 327] | active
11 | CCSCC(O)(CSCC)c1cc2cc([N+](=O)[O-])c(C(F)(F)F)cc2[nH]1 [compound 13] | inactive
12 | CC(O)(c1cc2cc(C#N)c(C(F)(F)F)cc2[nH]1)C(F)(F)F (stereo not shown) [Compound #334, 2-(2,2,2-Trifluoro-1-hydroxy-1-methyl-ethyl)-6-trifluoromethyl-1H-indole-5-carbonitrile] | active
13 | CCSCC(C)(O)c1cc2cc(N)c(C(F)(F)F)cc2[nH]1 (stereo not shown) [compound 166] | inactive
14 | CCSCC(O)c1cc2cc(C#N)c(C(F)(F)F)cc2[nH]1 (racemic) [compound 410] | inactive
15 | CCSCC(C)(O)c1cc2cc(C#N)c(C)c(I)c2[nH]1 (racemic) [compound 415] | inactive
16 | CCSCC(C)(O)c1cc2cc(C#N)c(C(F)(F)F)cc2n1CC(F)(F)F (racemic) [compound 237] | active

Row | Structure (SMILES) | active / inactive (inhibition of testosterone-enhanced prostate weight)
17 | O=[N+]([O-])c1cc2cc(C3(O)CCSC3)[nH]c2cc1C(F)(F)F (stereo not shown) [compound 18] | inactive
18 | CCSCC(C)(O)c1cc2cc([N+](=O)[O-])c(C(F)(F)F)cc2[nH]1 (racemic) [compound 153] | inactive
19 | N#Cc1cc2cc(C3(O)CCSC3)[nH]c2cc1C(F)(F)F (stereo not shown) [Compound #15] | inactive
20 | CC(O)(c1cc2cc(C#N)c(C(F)(F)F)cc2[nH]1)C(F)(F)F (stereo not shown) [Compound #335, 2-(2,2,2-Trifluoro-1-hydroxy-1-methyl-ethyl)-6-trifluoromethyl-1H-indole-5-carbonitrile] | active
21 | CCS(=O)(=O)CC(C)(O)c1cc2cc(C#N)c(C(F)(F)F)cc2[nH]1 (single isomer, unassigned) [compound 397] | inactive
22 | CC(C)(O)c1[nH]c2cc(C(F)(F)F)c([N+](=O)[O-])cc2c1Cl [compound 275] | active
23 | CC(O)(c1cc2cc(C#N)c(C(F)(F)F)cc2[nH]1)C(F)(F)F (stereo not shown) [Compound #329, 2-(2,2,2-Trifluoro-1-hydroxy-1-methyl-ethyl)-6-trifluoromethyl-1H-indole-5-carbonitrile] | active
24 | CC(C)(O[Si](C)(C)C)c1cc2cc(Cl)c(C(F)(F)F)cc2n1S(C)(=O)=O [compound 270] | inactive
25 | CCSCC(C)(O)c1cc2cc(C#N)ccc2[nH]1 (racemic) [compound 403] | inactive
26 | CC(C)(O[Si](C)(C)C)c1cc2cc([N+](=O)[O-])c(C(F)(F)F)cc2n1S(C)(=O)=O [compound 269] | inactive
27 | CC(C)(O)c1cc2cc([N+](=O)[O-])c(C(F)(F)F)cc2[nH]1 [compound 274] | inactive
28 | CC[S+]([O-])CC(C)(O)c1[nH]c2cc(C(F)(F)F)c(C#N)cc2c1C (mixture of isomers) [compound 245] | inactive
29 | CC(C)(O)c1[nH]c2cc(C(F)(F)F)c(C#N)cc2c1Br [compound 288] | active
30 | CCS(=O)(=O)CC(C)(O)c1cc2cc([N+](=O)[O-])c(C(F)(F)F)cc2n1C (single isomer, unassigned) [compound 232] | active
31 | CCSCC(C)(O)c1cc2cc(Cl)c(C#N)cc2[nH]1 (single isomer, unassigned) [compound 228] | inactive
